Calls of active or inactive are those of the source. The calls are words filed in the database; no cut-off is given here.
Columns and labels:
[1] = target: Glutamate NMDA receptor (Rattus norvegicus) (UniProt P35439+Q00959+Q00960+Q00961+Q62645+Q8VHN2+Q9R1M7); assay: Inhibition of rat NMDA receptor at 10 uM; format: protein-complex assay
Rattus norvegicus [2] = species: Rattus norvegicus; assay: Inhibition of rat kainate receptor at 10 uM
[3] = Inhibition of sst receptor at 10 uM
Rattus norvegicus [4] = assay: Antithrombotic activity in pentobarbital-anesthetized Sprague-Dawley rat assessed reduction in occlusion of arteries administered as initial 20 mg/kg, iv bolus dose followed by sustaining 20 mg/kg/h, iv dosing; format: functional, organism-based
Rattus norvegicus [5] = species: Rattus norvegicus; assay: Inhibition of rat AMPA receptor at 10 uM
[6] = target: D(1A) dopamine receptor (Homo sapiens) (UniProt P21728); assay: Inhibition of human dopamine D1 receptor at 10 uM
Rattus norvegicus [7] = assay: Antithrombotic activity in pentobarbital-anesthetized Sprague-Dawley rat assessed as improved blood flow in arterial thrombosis administered as initial bolus iv dosing plus sustaining iv infusion; format: functional, organism-based
Rattus norvegicus [8] = species: Rattus norvegicus; assay: animal or person; details: Sprague-Dawley, iv
Rattus norvegicus [9] = species: Rattus norvegicus; assay: Inhibition of rat GABA transporter at 10 uM
[10] = target: Histamine H1 receptor (Cavia porcellus) (UniProt P31389); assay: Inhibition of guinea pig histamine H1 receptor at 10 uM
[11] = target: Estrogen receptor (Homo sapiens) (UniProt P03372); assay: Inhibition of human ERalpha receptor at 10 uM
Chain of Estrogen receptor (Homo sapiens) (P03372 whole entry): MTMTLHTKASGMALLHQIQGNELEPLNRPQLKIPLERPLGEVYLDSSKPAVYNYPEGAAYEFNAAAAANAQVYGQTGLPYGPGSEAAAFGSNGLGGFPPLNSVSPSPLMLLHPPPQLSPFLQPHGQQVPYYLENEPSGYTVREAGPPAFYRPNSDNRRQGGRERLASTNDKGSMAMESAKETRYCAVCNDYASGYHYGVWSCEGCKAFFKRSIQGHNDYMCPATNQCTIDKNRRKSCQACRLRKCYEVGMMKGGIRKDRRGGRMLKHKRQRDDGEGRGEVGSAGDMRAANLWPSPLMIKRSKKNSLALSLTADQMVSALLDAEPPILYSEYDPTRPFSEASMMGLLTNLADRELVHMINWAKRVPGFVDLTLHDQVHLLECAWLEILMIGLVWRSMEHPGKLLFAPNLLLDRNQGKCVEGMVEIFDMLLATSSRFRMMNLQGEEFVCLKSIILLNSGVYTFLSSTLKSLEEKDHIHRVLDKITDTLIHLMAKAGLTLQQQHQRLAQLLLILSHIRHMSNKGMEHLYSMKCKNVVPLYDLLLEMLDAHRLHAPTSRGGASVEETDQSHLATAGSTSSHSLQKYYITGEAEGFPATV

[12] = target: Adenosine receptor A1 (Homo sapiens) (UniProt P30542); assay: Inhibition of human adenosine A1 receptor at 10 uM
Mus musculus = species: Mus musculus; assay: Inhibition of mouse rolipram binding site at 10 uM
[13] = target: Cholecystokinin receptor type A (Homo sapiens) (UniProt P32238); assay: Inhibition of human CCK1 receptor at 10 uM
Chain of Cholecystokinin receptor type A (Homo sapiens) (P32238 whole entry): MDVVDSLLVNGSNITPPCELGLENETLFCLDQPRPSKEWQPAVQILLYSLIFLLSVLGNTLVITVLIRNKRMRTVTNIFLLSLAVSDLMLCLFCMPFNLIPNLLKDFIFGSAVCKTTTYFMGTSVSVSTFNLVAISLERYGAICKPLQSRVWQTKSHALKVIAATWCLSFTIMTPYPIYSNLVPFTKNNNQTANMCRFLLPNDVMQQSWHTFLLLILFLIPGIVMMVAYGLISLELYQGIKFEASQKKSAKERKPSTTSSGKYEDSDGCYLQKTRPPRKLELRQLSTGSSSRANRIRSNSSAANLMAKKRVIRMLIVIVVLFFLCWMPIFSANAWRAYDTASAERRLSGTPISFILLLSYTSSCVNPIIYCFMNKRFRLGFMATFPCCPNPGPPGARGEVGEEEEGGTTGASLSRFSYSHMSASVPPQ

[14] = Inhibition of trypsin
cells = details: Homo sapiens, TC5
Rattus norvegicus [15] = assay: Ex vivo anticoagulant activity in pentobarbital-anesthetized Sprague-Dawley rat assessed as prolongation of prothrombin time administered as initial bolus iv dosing followed by sustaining iv infusion; format: functional, organism-based
Rattus norvegicus [16] = species: Rattus norvegicus; assay: Inhibition of rat choline transporter at 10 uM
[17] = Inhibition of sodium channel
[18] = target: Beta-1 adrenergic receptor (Homo sapiens) (UniProt P08588); assay: Inhibition of human adrenergic beta-1 receptor at 10 uM
Rattus norvegicus [19] = species: Rattus norvegicus; assay: Inhibition of rat chloride channel at 10 uM
[20] = target: Sodium-dependent dopamine transporter (Rattus norvegicus) (UniProt P23977); assay: Inhibition of rat dopamine transporter at 10 uM
Chain of Sodium-dependent dopamine transporter (Rattus norvegicus) (P23977 whole entry): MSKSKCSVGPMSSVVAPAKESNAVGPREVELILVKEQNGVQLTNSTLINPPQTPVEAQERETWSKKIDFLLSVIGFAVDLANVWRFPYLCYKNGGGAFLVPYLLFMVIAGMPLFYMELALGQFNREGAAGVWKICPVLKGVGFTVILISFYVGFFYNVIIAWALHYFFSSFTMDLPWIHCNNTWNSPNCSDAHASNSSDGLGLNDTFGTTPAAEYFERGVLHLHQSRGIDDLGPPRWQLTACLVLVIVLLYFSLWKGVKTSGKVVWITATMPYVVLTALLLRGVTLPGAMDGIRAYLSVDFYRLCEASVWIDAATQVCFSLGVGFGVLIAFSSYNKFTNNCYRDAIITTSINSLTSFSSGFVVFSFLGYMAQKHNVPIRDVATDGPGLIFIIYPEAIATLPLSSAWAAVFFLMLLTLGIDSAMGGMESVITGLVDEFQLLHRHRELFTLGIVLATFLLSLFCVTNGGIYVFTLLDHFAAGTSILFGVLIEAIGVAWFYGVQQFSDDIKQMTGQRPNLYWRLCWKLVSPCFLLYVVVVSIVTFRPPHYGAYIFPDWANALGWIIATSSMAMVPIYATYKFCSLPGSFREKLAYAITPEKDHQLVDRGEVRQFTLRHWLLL

[21] = target: Adrenergic receptor alpha-2 (Rattus norvegicus) (UniProt P22086+P19328+P22909); assay: Inhibition of rat adrenergic alpha2 receptor at 10 uM
Rattus norvegicus [22] = species: Rattus norvegicus; assay: Inhibition of rat opioid receptor at 10 uM
[23] = target: 5-hydroxytryptamine receptor 1A (Homo sapiens) (UniProt P08908); assay: Inhibition of human 5HT1A receptor at 10 uM
Chain of 5-hydroxytryptamine receptor 1A (Homo sapiens) (P08908 whole entry): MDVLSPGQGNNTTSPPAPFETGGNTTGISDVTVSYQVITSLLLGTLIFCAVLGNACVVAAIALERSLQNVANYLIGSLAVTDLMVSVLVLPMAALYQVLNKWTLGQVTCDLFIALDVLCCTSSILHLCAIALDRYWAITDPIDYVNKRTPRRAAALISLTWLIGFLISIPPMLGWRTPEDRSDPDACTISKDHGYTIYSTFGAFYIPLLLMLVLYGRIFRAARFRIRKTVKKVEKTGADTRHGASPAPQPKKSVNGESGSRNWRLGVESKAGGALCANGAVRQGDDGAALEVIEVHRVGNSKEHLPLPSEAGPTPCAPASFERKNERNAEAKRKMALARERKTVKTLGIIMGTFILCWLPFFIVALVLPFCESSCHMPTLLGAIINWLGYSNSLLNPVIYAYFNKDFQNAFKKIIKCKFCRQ

Rattus norvegicus [24] = species: Rattus norvegicus; assay: Inhibition of rat central-type benzodiazepine receptor at 10 uM
Rattus norvegicus [25] = species: Rattus norvegicus; assay: Inhibition of rat sodium channel site 2 at 10 uM
[26] = Inhibition of tryptase
[27] = target: D(2) dopamine receptor (Homo sapiens) (UniProt P14416); assay: Inhibition of human dopamine D2S receptor at 10 uM
Chain of D(2) dopamine receptor (Homo sapiens) (P14416 whole entry): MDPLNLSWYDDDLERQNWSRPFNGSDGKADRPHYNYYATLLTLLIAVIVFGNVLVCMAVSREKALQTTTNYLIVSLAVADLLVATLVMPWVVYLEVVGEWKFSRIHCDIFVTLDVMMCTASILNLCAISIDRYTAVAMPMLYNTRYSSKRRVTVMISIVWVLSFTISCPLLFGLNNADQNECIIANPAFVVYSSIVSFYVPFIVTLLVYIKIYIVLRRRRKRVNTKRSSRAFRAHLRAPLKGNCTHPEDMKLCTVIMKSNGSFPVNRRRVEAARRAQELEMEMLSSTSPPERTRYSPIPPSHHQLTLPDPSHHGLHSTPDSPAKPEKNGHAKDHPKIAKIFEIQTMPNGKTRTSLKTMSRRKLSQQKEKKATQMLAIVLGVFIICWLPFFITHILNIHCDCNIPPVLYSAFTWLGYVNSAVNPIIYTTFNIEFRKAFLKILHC

[28] = target: 5-hydroxytryptamine receptor 2B (Homo sapiens) (UniProt P41595); assay: Inhibition of human 5HT2B receptor at 10 uM
Chain of 5-hydroxytryptamine receptor 2B (Homo sapiens) (P41595 whole entry): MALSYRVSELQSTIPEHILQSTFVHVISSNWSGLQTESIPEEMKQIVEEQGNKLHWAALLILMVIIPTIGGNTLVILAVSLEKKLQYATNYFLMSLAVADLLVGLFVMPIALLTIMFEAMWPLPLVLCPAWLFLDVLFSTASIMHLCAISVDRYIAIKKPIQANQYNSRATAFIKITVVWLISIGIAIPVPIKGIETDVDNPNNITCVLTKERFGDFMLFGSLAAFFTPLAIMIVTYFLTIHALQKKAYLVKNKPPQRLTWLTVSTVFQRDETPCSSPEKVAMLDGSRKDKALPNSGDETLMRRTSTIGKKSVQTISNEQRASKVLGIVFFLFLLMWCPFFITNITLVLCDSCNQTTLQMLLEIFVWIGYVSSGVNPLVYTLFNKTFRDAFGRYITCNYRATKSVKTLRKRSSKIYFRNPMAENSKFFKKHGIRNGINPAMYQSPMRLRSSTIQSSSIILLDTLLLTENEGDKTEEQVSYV

[29] = target: Muscarinic acetylcholine receptor (Rattus norvegicus) (UniProt P08482+P08483+P08485+P08911+P10980); assay: Inhibition of rat muscarinic receptor at 10 uM
Rattus norvegicus [30] = species: Rattus norvegicus; assay: animal or person; details: Sprague-Dawley, Vena cava, iv
[31] = target: Beta-2 adrenergic receptor (Homo sapiens) (UniProt P07550); assay: Inhibition of human adrenergic beta2 receptor at 10 uM
Chain of Beta-2 adrenergic receptor (Homo sapiens) (P07550 whole entry, looked up): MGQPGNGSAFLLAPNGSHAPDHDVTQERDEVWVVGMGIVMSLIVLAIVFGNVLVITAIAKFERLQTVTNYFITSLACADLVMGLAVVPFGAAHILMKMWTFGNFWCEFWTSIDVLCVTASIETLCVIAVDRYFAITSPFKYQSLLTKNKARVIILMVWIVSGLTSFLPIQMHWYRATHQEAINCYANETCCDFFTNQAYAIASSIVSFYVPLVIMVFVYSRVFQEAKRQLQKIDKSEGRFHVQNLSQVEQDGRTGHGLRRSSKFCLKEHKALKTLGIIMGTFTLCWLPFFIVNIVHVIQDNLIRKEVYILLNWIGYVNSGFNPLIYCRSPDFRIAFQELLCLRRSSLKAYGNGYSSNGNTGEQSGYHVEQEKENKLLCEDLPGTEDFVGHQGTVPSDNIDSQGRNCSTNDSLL

[32] = target: Progesterone receptor (Homo sapiens) (UniProt P06401); assay: Inhibition of human progesterone receptor at 10 uM
Chain of Progesterone receptor (Homo sapiens) (P06401 whole entry): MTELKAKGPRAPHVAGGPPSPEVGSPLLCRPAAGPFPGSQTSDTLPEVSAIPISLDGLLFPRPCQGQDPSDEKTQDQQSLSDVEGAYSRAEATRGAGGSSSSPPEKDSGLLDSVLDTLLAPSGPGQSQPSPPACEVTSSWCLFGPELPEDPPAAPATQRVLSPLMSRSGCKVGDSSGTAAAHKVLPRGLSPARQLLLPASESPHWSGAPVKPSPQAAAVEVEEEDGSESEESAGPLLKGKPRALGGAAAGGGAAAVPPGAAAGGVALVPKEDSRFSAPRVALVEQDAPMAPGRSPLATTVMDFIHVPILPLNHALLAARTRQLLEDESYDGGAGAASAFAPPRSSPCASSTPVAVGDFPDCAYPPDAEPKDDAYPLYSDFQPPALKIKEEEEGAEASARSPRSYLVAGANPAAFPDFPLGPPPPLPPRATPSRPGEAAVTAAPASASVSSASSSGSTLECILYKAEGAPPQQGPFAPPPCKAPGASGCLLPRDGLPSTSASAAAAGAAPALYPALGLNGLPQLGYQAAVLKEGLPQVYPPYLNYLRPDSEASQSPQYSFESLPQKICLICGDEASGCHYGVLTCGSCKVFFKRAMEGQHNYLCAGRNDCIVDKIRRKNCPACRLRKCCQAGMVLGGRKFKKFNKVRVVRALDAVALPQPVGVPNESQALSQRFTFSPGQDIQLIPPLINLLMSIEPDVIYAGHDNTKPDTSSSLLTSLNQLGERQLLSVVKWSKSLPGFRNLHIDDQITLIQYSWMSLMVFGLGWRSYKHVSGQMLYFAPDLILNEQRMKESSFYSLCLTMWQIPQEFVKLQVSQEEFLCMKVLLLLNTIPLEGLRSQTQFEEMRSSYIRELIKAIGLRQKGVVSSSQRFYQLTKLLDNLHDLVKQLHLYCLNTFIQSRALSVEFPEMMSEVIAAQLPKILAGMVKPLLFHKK

Rattus norvegicus [33] = species: Rattus norvegicus; assay: Inhibition of rat PCP receptor at 10 uM
[34] = target: Sodium-dependent noradrenaline transporter (Homo sapiens) (UniProt P23975); assay: Inhibition of human norepinephrine transporter at 10 uM
Chain of Sodium-dependent noradrenaline transporter (Homo sapiens) (P23975 whole entry): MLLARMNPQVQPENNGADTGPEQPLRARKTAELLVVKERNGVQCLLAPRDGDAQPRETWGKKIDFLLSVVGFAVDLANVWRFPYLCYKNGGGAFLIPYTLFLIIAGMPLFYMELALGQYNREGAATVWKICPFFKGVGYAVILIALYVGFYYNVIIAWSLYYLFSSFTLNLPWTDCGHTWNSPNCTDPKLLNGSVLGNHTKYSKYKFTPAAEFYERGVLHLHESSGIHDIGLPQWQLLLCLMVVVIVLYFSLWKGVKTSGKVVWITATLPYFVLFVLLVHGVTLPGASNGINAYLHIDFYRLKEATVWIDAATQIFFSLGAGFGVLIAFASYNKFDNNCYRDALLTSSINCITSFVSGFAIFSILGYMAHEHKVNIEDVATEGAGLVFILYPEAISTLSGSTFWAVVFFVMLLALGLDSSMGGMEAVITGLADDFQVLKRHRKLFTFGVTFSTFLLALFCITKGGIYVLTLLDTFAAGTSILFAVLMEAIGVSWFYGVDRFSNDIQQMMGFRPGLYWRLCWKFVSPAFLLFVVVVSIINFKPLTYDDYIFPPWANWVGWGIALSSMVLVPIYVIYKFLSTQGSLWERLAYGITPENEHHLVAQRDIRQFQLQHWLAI

[35] = target: Glucocorticoid receptor (Homo sapiens) (UniProt P04150); assay: Inhibition of human glucocorticoid receptor at 10 uM
[36] = target: Adrenergic receptor alpha-1 (Rattus norvegicus) (UniProt P15823+P23944+P43140); assay: Inhibition of rat adrenergic alpha1 receptor at 10 uM
Rattus norvegicus [37] = species: Rattus norvegicus; assay: Inhibition of rat 5-HT receptor at 10 uM
[38] = target: Histamine H2 receptor (Cavia porcellus) (UniProt P47747); assay: Inhibition of guinea pig histamine H2 receptor at 10 uM

Structure (SMILES): Cc1cc2cc(/N=C(/NC#N)N[C@H]3CCCCN(CC(=O)N4CCCC4)C3=O)ccc2o1
- inhibition [1]: inactive
- inhibition (Rattus norvegicus [2]): inactive
- inhibition [3]: inactive
- Activity (Rattus norvegicus [4]): Active
- inhibition (Rattus norvegicus [5]): inactive
- inhibition [6]: inactive
- Activity (Rattus norvegicus [7]): Active
- ED50 (Rattus norvegicus [8]): 25 mg/kg
- inhibition (Rattus norvegicus [9]): inactive
- inhibition [10]: inactive
- inhibition [11]: inactive
- EC (Plasma): 30 µM
- inhibition [12]: inactive
- inhibition (Mus musculus): inactive
- inhibition [13]: inactive
- Ki [14]: > 10 µM
- IC50 (cells): > 200 µM
- Activity (Rattus norvegicus [15]): Dose-dependent effect
- inhibition (Rattus norvegicus [16]): inactive
- inhibition [17]: inactive
- inhibition [18]: inactive
- inhibition (Rattus norvegicus [19]): inactive
- inhibition [20]: inactive
- inhibition [21]: inactive
- inhibition (Rattus norvegicus [22]): inactive
- inhibition [23]: inactive
- inhibition (Rattus norvegicus [24]): inactive
- inhibition (Rattus norvegicus [25]): inactive
- Ki [26]: > 16 µM
- inhibition [27]: inactive
- inhibition [28]: inactive
- inhibition [29]: inactive
- ED50 (Rattus norvegicus [30]): 6 mg/kg
- inhibition [31]: inactive
- inhibition [32]: inactive
- inhibition (Rattus norvegicus [33]): inactive
- inhibition [34]: inactive
- inhibition [35]: inactive
- inhibition [36]: inactive
- inhibition (Rattus norvegicus [37]): inactive
- inhibition [38]: inactive

Reference: ChEMBL document CHEMBL1152385, “Cyanoguanidine-based lactam derivatives as a novel class of orally bioavailable factor Xa inhibitors” (Bioorg Med Chem Lett, 2009)
